These results are taken from patent US20220356163A1, “SMALL MOLECULE INHIBITORS OF Id PROTEINS” (MEMORIAL SLOAN KETTERING CANCER CENTER, priority 2019, published 2022).

Entries after “also recorded” stand apart in the source; their conditions may differ.

For this test, the system named is Id proteins. The test is described as follows: Western blot for Id1 in HCT116 and 4T1 cells (FIGS. 7C-7D). Type of test: cell-based. The settings on record: 24 hours. As for the experimental part:
The IC50 is indicated. […] The IC50 is indicated. […] Laser-induced choroidal neovascularization (NV) was induced in mice and they were treated by intravitreal injection with DMSO, 1 or 5 μg AGX-A, or 1 or 5 μg AGX51. On day 14 the animals were euthanized and area of CNV was measured (** indicates p<0.01, *** indicates p<0.0001 by ANOVA, error bars show SEM).
Immunoblotting. For immunoblotting, cells were collected by trypsinization, washed with PBS and lysed in homogenization buffer (0.3 M sucrose, 10 mM Tris (pH 8.0), 400 mM sodium chloride, 3 mM magnesium chloride, 0.5% NP40/IGEPAL, 100 μg/mL Aprotinin+Protease inhibitor cocktail (Roche #11 836 153 001). Proteins were separated by SDS-PAGE, transferred to a membrane (LI-COR), probed with primary antibodies overnight at 4° C., and probed with secondary antibodies (LI-COR) for 1-2 hours at room temperature. Proteins were visualized using the LI-COR Odyssey Infrared Imaging detection system. The following primary antibodies were used Id1, Id2, Id3, Id4 (195-14, 9-2-8, 17-3, 82-12, respectively, all from Biocheck), Cyclin D1 (2978, Cell Signaling), Actin (A2066, Sigma), Tubulin (T4026, Sigma). Western blot quantification was carried out using channel 700 and channel 800 intensity data from Odyssey application software version 3.0.30 (LI-COR), subtracting blank values and normalizing to Tubulin.
In general terms: Immunoblotting shows a protein as a band on a membrane.

Turning to `COc1ccccc1C(CCNCc1ccccc1)c1ccc(OC(C)C)cc1` (stereo not shown) [AGX-A, N-benzyl-3-(4-isopropoxyphenyl)-3-(2-methoxyphenyl)propan-1-anine], the “Id protein levels in cells, concentration needed relative to AGX51” value is listed as “reduced Id protein levels at lower concentrations than AGX51; also recorded: degraded Id proteins in cells at lower concentrations than AGX51”.
